From the supplement of paper PMC4628005

Experiments:
Details in all cases: drug exposure time: 96 h
17-AAG = compound: C=CCNC1=C2C[C@@H](C)C[C@H](OC)[C@H](O)[C@@H](C)/C=C(\C)[C@H](OC(N)=O)[C@@H](OC)/C=C\C=C(/C)C(=O)NC(=CC1=O)C2=O [17-AAG]
Experimental: (§1)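 Same SRB 96 h IC50 screen on breast cancer cell lines (RPMI 1640 + 10% FBS, collagen I-coated 96-well plates, triplicates, 12 dilutions), for drugs with a different dose range: Bortezomib up to 2e-5 M; Sirolimus and 17-AAG up to 2e-6 M. Sirolimus values at the 2e-6 M top dose are censored.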

Bortezomib = compound: CC(C)C[C@H](NC(=O)[C@H](Cc1ccccc1)NC(=O)c1cnccn1)B(O)O [Bortezomib]
Experimental: as §1

Sirolimus = compound: CO[C@H]1C[C@@H]2CC[C@@H](C)[C@@](O)(O2)C(=O)C(=O)N2CCCC[C@H]2C(=O)O[C@H]([C@H](C)C[C@@H]2CC[C@@H](O)[C@H](OC)C2)CC(=O)[C@H](C)/C=C(\C)[C@@H](O)[C@@H](OC)C(=O)[C@H](C)C[C@H](C)/C=C/C=C/C=C/1C [Sirolimus]
Experimental: as §1

Tamoxifen = compound: CC/C(=C(\c1ccccc1)c1ccc(OCCN(C)C)cc1)c1ccccc1 [Tamoxifen]
Experimental: (§2)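 Breast cancer cell lines were grown in RPMI 1640 with 10% FBS on collagen I-coated 96-well plates and treated for 96 h (from 24 h after seeding) with 12 dilutions per drug, in triplicate. Growth was read by sulforhodamine B total-protein staining (absorbance 570 nm) relative to diluent control, and IC50 was calculated. The top dose was 1e-5 M for most drugs; Bortezomib went to 2e-5 M and Sirolimus and 17-AAG to 2e-6 M[…].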

MI-219 = compound: CC(C)(C)C[C@H]1N[C@@H](C(=O)NCC[C@H](O)CO)[C@H](c2cccc(Cl)c2)[C@@]12C(=O)Nc1cc(Cl)c(F)cc12 [MI-219]
Experimental: as §2

Belinostat = compound: O=C(/C=C/c1cccc(S(=O)(=O)Nc2ccccc2)c1)NO [Belinostat]
Experimental: as §2

Brivanib = compound: Cc1cc2c(F)c(Oc3ncnn4cc(OC[C@@H](C)O)c(C)c34)ccc2[nH]1 [Brivanib]
Experimental: as §2

Dasatinib = compound: Cc1nc(Nc2ncc(C(=O)Nc3c(C)cccc3Cl)s2)cc(N2CCN(CCO)CC2)n1 [Dasatinib]
Experimental: as §2

Docetaxel = compound: CC(=O)O[C@@]12CO[C@@H]1C[C@H](O)[C@@]1(C)C(=O)[C@H](O)C3=C(C)[C@@H](OC(=O)[C@H](O)[C@@H](NC(=O)OC(C)(C)C)c4ccccc4)C[C@@](O)([C@@H](OC(=O)c4ccccc4)[C@H]21)C3(C)C [Docetaxel]
Experimental: as §2

Erlotinib = compound: C#Cc1cccc(Nc2ncnc3cc(OCCOC)c(OCCOC)cc23)c1 [Erlotinib]
Experimental: as §2

Methotrexate = compound: CN(Cc1cnc2nc(N)nc(N)c2n1)c1ccc(C(=O)N[C@@H](CCC(=O)O)C(=O)O)cc1 [Methotrexate]
Experimental: as §2

Sorafenib = compound: CNC(=O)c1cc(Oc2ccc(NC(=O)Nc3ccc(Cl)c(C(F)(F)F)c3)cc2)ccn1 [Sorafenib]
Experimental: as §2

Decitabine = compound: Nc1ncn([C@H]2C[C@H](O)[C@@H](CO)O2)c(=O)n1 [Decitabine]
Experimental: as §2

Nutlin-3 = compound: COc1ccc(C2=N[C@@H](c3ccc(Cl)cc3)[C@@H](c3ccc(Cl)cc3)N2C(=O)N2CCNC(=O)C2)c(OC(C)C)c1 [Nutlin-3]
Experimental: as §2

ARQ197 = compound: O=C1NC(=O)[C@@H](c2cn3c4c(cccc24)CCC3)[C@@H]1c1c[nH]c2ccccc12 [ARQ197]
Experimental: as §2

Gefitinib = compound: COc1cc2ncnc(Nc3ccc(F)c(Cl)c3)c2cc1OCCCN1CCOCC1 [Gefitinib]
Experimental: as §2

Azacitidine = compound: Nc1ncn([C@@H]2O[C@H](CO)[C@@H](O)[C@H]2O)c(=O)n1 [Azacitidine]
Experimental: as §2

Serdemetan = compound: c1ccc2c(CCNc3ccc(Nc4ccncc4)cc3)c[nH]c2c1 [Serdemetan]
Experimental: as §2

Sunitinib = compound: CCN(CC)CCNC(=O)c1c(C)[nH]c(/C=C2\C(=O)Nc3ccc(F)cc32)c1C [Sunitinib]
Experimental: as §2

Panobinostat = compound: Cc1[nH]c2ccccc2c1CCNCc1ccc(/C=C/C(=O)NO)cc1 [Panobinostat]
Experimental: as §2

Lapatinib = compound: CS(=O)(=O)CCNCc1ccc(-c2ccc3ncnc(Nc4ccc(OCc5cccc(F)c5)c(Cl)c4)c3c2)o1 [Lapatinib]
Experimental: as §2

Paclitaxel = compound: CC(=O)O[C@H]1C(=O)[C@@]2(C)[C@H]([C@H](OC(=O)c3ccccc3)[C@]3(O)C[C@H](OC(=O)[C@H](O)[C@@H](NC(=O)c4ccccc4)c4ccccc4)C(C)=C1C3(C)C)[C@]1(OC(C)=O)CO[C@@H]1C[C@@H]2O [Paclitaxel]
Experimental: as §2

5-Fluorouracil = compound: O=c1[nH]cc(F)c(=O)[nH]1 [5-Fluorouracil]
Experimental: as §2

Tipifarnib = compound: Cn1cncc1[C@@](N)(c1ccc(Cl)cc1)c1ccc2c(c1)c(-c1cccc(Cl)c1)cc(=O)n2C [Tipifarnib]
Experimental: as §2

Doxorubicin = compound: COc1cccc2c1C(=O)c1c(O)c3c(c(O)c1C2=O)C[C@@](O)(C(=O)CO)C[C@@H]3O[C@H]1C[C@H](N)[C@H](O)[C@H](C)O1 [Doxorubicin]
Experimental: as §2

Quisinostat = compound: Cn1cc(CNCC2CCN(c3ncc(C(=O)NO)cn3)CC2)c2ccccc21 [Quisinostat]
Experimental: as §2

Vandetanib = compound: COc1cc2/c(=N/c3ccc(Br)cc3F)nc[nH]c2cc1OCC1CCN(C)CC1 [Vandetanib]
Experimental: as §2

Mitoxantrone = compound: O=C1c2c(O)ccc(O)c2C(=O)c2c(NCCNCCO)ccc(NCCNCCO)c21 [Mitoxantrone]
Experimental: as §2

Vorinostat = compound: O=C(CCCCCCC(=O)Nc1ccccc1)NO [Vorinostat]
Experimental: as §2

Cisplatin = compound: N.N.[Cl][Pt][Cl] [Cisplatin]
Experimental: as §2

Test System	IC50 (SRB growth assay) (17-AAG) [nM]	IC50 (SRB growth assay) (Bortezomib) [nM]	IC50 (SRB growth assay) (Sirolimus) [nM]	IC50 (SRB growth assay) (Tamoxifen) [nM]	IC50 (SRB growth assay) (MI-219) [nM]	IC50 (SRB growth assay) (Belinostat) [nM]	IC50 (SRB growth assay) (Brivanib) [nM]	IC50 (SRB growth assay) (Dasatinib) [nM]	IC50 (SRB growth assay) (Docetaxel) [nM]	IC50 (SRB growth assay) (Erlotinib) [nM]	IC50 (SRB growth assay) (Methotrexate) [nM]	IC50 (SRB growth assay) (Sorafenib) [nM]	IC50 (SRB growth assay) (Decitabine) [nM]	IC50 (SRB growth assay) (Nutlin-3) [nM]	IC50 (SRB growth assay) (ARQ197) [nM]	IC50 (SRB growth assay) (Gefitinib) [nM]	IC50 (SRB growth assay) (Azacitidine) [nM]	IC50 (SRB growth assay) (Serdemetan) [nM]	IC50 (SRB growth assay) (Sunitinib) [nM]	IC50 (SRB growth assay) (Panobinostat) [nM]	IC50 (SRB growth assay) (Lapatinib) [nM]	IC50 (SRB growth assay) (Paclitaxel) [nM]	IC50 (SRB growth assay) (5-Fluorouracil) [nM]	IC50 (SRB growth assay) (Tipifarnib) [nM]	IC50 (SRB growth assay) (Doxorubicin) [nM]	IC50 (SRB growth assay) (Quisinostat) [nM]	IC50 (SRB growth assay) (Vandetanib) [nM]	IC50 (SRB growth assay) (Mitoxantrone) [nM]	IC50 (SRB growth assay) (Vorinostat) [nM]	IC50 (SRB growth assay) (Cisplatin) [nM]
MDA-MB 415	71.8	10.8	0.688	9970	> 10000	548	> 10000	> 10000	0.764	> 10000	326	5200	> 10000	> 10000	691	> 10000	> 10000	6070	5100	23.6	> 10000	5.81	6530	6780	66	24.1	4780	31.3	1530	> 10000
MDA-MB 435 S	164	12.3	> 2000	> 10000	> 10000	2010	> 10000	> 10000	1.32	> 10000	12.4	6530	> 10000	> 10000	705	> 10000	3760	2050	5440	44.5	> 10000	2.15	2860	> 10000	54.8	25.2	6950	35.8	2630	> 10000
MDA-MB 436	34.9	6.95	3.42	> 10000	> 10000	637	> 10000	1290	0.772	1970	27.7	4830	783	> 10000	359	4960	1670	1000	2170	34.6	4660	2.3	981	703	5.7	23.5	4100	0.781	1890	1400
MDA-MB 453	3.08	6.37	0.19	6360	> 10000	52.7	> 10000	3.93	0.872	> 10000	> 10000	4930	4170	> 10000	192	> 10000	7190	796	6260	5.73	827	2.14	> 10000	2140	31.9	2.01	5110	8.79	368	> 10000
MDA-MB 468	745	4.31	2.22	4940	> 10000	436	> 10000	> 10000	0.515	1150	7.54	4530	77.7	> 10000	222	990	2340	837	2940	14.9	762	1.56	5280	77	9.63	9.89	1990	4.09	1030	974
MPE 600	104	5.48	1.52	> 10000	2050	379	> 10000	> 10000	1.15	8850	31	1900	595	4450	859	4260	548	2260	6560	13.8	3080	2.51	1250	631	26.6	14.8	1990	8.01	1220	> 10000
